# Active and inactive are the calls of the source. The rule behind the calls is not given here.
# Assays:
# [1] = molecular target: T1, Estrogen receptor (Homo sapiens) (UniProt P03372); test: Binding affinity to ER-alpha in human MCF7 cells assessed as increase in thermal stability of protein at 100 uM incubated for 1 hr followed by exposure to heat at 25 to 66 degC for 3 mins and incubation for 3 mins at room temperature by thermal shift binding assay; format: cell-based; conditions: time 66.0 min
# T1 sequence (whole entry): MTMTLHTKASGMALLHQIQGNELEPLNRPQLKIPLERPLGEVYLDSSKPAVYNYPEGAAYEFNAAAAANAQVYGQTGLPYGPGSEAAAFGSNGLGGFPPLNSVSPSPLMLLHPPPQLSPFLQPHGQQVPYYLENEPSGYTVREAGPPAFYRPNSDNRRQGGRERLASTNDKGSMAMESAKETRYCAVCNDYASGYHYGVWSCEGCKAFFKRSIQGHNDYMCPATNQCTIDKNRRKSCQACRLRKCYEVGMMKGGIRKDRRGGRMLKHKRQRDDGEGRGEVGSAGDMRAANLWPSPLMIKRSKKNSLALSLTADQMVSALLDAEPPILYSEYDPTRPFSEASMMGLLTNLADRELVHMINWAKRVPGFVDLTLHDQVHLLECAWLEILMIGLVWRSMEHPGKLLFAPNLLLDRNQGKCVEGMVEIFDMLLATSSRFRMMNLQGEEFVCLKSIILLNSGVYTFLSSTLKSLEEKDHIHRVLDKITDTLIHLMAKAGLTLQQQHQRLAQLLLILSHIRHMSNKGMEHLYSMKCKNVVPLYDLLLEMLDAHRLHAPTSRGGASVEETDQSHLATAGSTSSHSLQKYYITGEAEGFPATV
# [2] = test system: MCF7; test: Antiproliferative activity against human MCF7 cells assessed as reduction in cell viability incubated for 48 hrs by MTT assay relative to control; format: functional
# [3] = Toxicity in Balb/c mouse xenografted with human MCF7 cells assessed as effect on lymphocytes count at 5 to 10 mg/kg, iv measured after 24 hrs; format: organism-based; conditions: in vivo, dose 5-10 mg/kg
# [4] = test system: MCF7; test: Antitumor activity against human MCF7 cells xenografted in Balb/c mouse assessed as inhibition of tumor growth at 5 mg/kg, iv administered every 3 days and measured for 21 days; format: functional; conditions: MCF7, 504 h, time 21 day, read-out: TGI
# [5] = molecular target: T1, Estrogen receptor (Homo sapiens); test: HyT degrader activity at ER-alpha in human MCF7 cells assessed as induction of ER-alpha degradation incubated for 24 hrs by western blot analysis; format: cell-based; conditions: dose 0.01-100 µM
# [6] = test system: MCF7; test: Antitumor activity against human MCF7 cells xenografted in Balb/c mouse assessed as tumor tissue damage at 10 mg/kg, iv administered every 3 days and measured on day 21 by Hematoxylin-Eosin staining based analysis; format: functional, organism-based; conditions: time 21.0 day
# [7] = molecular target: Estrogen receptor beta (Homo sapiens) (UniProt Q92731); test: Binding affinity to ER-beta in human MCF7 cells at 100 uM incubated for 1 hr followed by exposure to heat at 25 to 66 degC for 3 mins and incubation for 3 mins at room temperature by thermal shift binding assay; format: cell-based; conditions: time 66.0 min
# [8] = Hepatotoxicity in Balb/c mouse xenografted with human MCF7 cells assessed as effect on AST level in serum at 5 to 10 mg/kg, iv measured after 24 hrs; format: toxicity, organism-based; conditions: in vivo, dose 5-10 mg/kg
# [9] = Toxicity in Balb/c mouse xenografted with human MCF7 cells assessed as effect on white blood cells count at 5 to 10 mg/kg, iv measured after 24 hrs; format: organism-based; conditions: in vivo, dose 5-10 mg/kg
# [10] = molecular target: T1, Estrogen receptor (Homo sapiens); test: HyT degrader activity at ER-alpha in human T47D cells assessed as induction of ER-alpha degradation by measuring downregulation of ER-alpha level at 1 to 5 uM incubated for 24 hrs by immunoblot analysis; format: cell-based; conditions: dose 1-5 µM
# [11] = test system: MCF7; test: Antiproliferative activity against human MCF7 cells overexpressing ER-alpha Y537S mutant assessed as reduction in cell viability incubated for 48 hrs by MTT assay; format: functional, cell-based; conditions: MCF7, 48 h
# [12] = molecular target: T1, Estrogen receptor (Homo sapiens); test: HyT degrader activity at ER-alpha in human MCF7 cells assessed as induction of ER-alpha degradation by measuring decrease in ER-alpha level at 10 uM pretreated with 26S proteasome inhibitor, MG-132 and NAE inhibitor, MLN4924 for 6 hrs followed by incubation with compound for 24 hrs by immunoblot analysis; format: cell-based
# [13] = molecular target: T1, Estrogen receptor (Homo sapiens); test: HyT degrader activity at ER-alpha in human MCF7 cells assessed as induction of ER-alpha degradation by measuring decrease in ER-alpha level at 10 uM incubated for 48 hrs followed by drug wash-out and measured after 48 hrs by western blot analysis; format: cell-based
# [14] = molecular target: T1, Estrogen receptor (Homo sapiens); test: HyT degrader activity at ER-alpha in human MCF7 cells assessed as induction of ER-alpha degradation by measuring residual ER-alpha level at 10 uM incubated for 12 hrs by immunoblot analysis; format: cell-based
# [15] = test system: MCF7; test: Antiproliferative activity against human MCF7 cells assessed as reduction in cell viability incubated for 48 hrs by MTT assay; format: functional, cell-based; conditions: MCF7, 48 h
# [16] = Nephrotoxicity in Balb/c mouse xenografted with human MCF7 cells assessed as effect on creatinine level in serum at 5 to 10 mg/kg, iv measured after 24 hrs; format: toxicity, organism-based; conditions: in vivo, dose 5-10 mg/kg
# [17] = Toxicity in Balb/c mouse xenografted with human MCF7 cells assessed as effect on lungs morphological changes at 5 to 10 mg/kg, iv measured after 24 hrs by Hematoxylin-Eosin staining based analysis; format: organism-based; conditions: in vivo, dose 5-10 mg/kg
# [18] = Toxicity in Balb/c mouse xenografted with human MCF7 cells assessed as effect on hematocrit level at 5 to 10 mg/kg, iv measured after 24 hrs; format: organism-based; conditions: in vivo, dose 5-10 mg/kg
# [19] = molecular target: T1, Estrogen receptor (Homo sapiens); test: HyT degrader activity at ER-alpha in human MCF7 cells assessed as induction of ER-alpha degradation by measuring decrease in ER-alpha level at 10 uM incubated for 72 hrs by western blot analysis; format: cell-based
# [20] = Toxicity in Balb/c mouse xenografted with human MCF7 cells assessed as effect on spleen morphological changes at 5 to 10 mg/kg, iv measured after 24 hrs by Hematoxylin-Eosin staining based analysis; format: organism-based; conditions: in vivo, dose 5-10 mg/kg
# Chain of Estrogen receptor beta (Homo sapiens) (Q92731 whole entry): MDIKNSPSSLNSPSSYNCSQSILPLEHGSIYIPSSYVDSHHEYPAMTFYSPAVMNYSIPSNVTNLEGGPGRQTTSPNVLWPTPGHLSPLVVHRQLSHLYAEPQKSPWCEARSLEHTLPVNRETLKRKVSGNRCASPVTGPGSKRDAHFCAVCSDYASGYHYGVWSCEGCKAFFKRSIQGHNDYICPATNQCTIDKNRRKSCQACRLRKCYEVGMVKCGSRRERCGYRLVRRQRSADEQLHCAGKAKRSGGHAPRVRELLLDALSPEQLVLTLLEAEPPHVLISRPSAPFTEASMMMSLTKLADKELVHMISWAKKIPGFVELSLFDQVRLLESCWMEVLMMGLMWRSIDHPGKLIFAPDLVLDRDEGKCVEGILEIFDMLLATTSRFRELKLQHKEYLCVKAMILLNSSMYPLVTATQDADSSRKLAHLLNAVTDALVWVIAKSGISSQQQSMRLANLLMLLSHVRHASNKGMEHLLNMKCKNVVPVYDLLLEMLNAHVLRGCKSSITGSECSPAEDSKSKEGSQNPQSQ
smiles,measurement,setting,value
C[C@@H]1CCC2[C@]34OO[C@](C)(CCC13)O[C@@H]4O[C@]2(C)C(=O)NCCCOc1ccc(C(=O)c2c(-c3ccc(O)cc3)sc3cc(O)ccc23)cc1 (stereo not given in full),Activity,[1],Active
same,inhibition (INH),[2],73.5%
same,Activity,[3],Non-toxic
same,inhibition in vivo at 5 mg/kg,[4],93.3%
same,Activity,[5],Dose-dependent-effect
same,Activity,[6],Active
same,Activity,[7],Active; Weak Affinity
same,Activity,[8],Non-toxic
same,Activity,[9],Non-toxic
same,Activity,[10],Active
same,IC50,[11],10.9 µM
same,Activity,[12],inactive
same,Activity,[13],Active
same,Activity,[14],23.5%
same,IC50,[15],2.28 µM
same,Activity,[16],Non-toxic
same,Activity,[17],Non-toxic
same,Activity,[18],Non-toxic
same,Activity,[19],Active
same,Activity,[20],Non-toxic
